Reference: patent US9315532B2, “Fatty acid carbohydrate hybrid molecules as therapeutic agents and methods thereof” (The Johns Hopkins University, priority 2005, dated 2016)
“Also recorded” adds a separate entry of the source.

Assays:
Assay type in all cases: cell-based, human
Jurkat cells = experiment: Toxicity and growth inhibition assays (cell counts on days 3, 5 and 15)
Protocol: For cell culture studies, But4ManNAc (1) (50) was used as a mixture of anomers (α/β=10/90), But4GlcNAc (2) as pure α-anomer and But5Man (3) as pure β-anomer (It is noteworthy that the intracellular hydrolysis of butyrate esters makes the anomeric configuration less relevant in these studies and we found similar cellular effects between the α- and β-anomers in long term toxicity). Stock solutions of the sugar analogs were made in ethanol at concentrations of 10 mM and 50 mM. In the case of cells growing in suspension the solutions of 1-4 (or an ethanol control at an equivalent volume) were coated onto dishes and the ethanol was allowed to evaporate prior to plating. Unless otherwise noted, throughout this study Jurkat cells (Clone E-6, ATCC, Manassas, Va.) were cultured in RPMI 1640 medium supplemented with 300 mg/L glutamine, 5.0% fetal bovine serum (HyClone, Logan, Utah) and 1.0% of a 100× dilution of a pen/strep stock solution containing penicillin (100 units/mL) and streptomycin (100 μg/mL); HL-60 cells (ATCC, Manassas, Va.) were cultured in RPMI 1640 medium supplemented with 10% FBS and pen/strep; and AD293 (HEK) cells (Stratagene, La Jolla, Calif.) were grown in DMEM medium with 10% FBS and pen/strep. In all cases, cells were incubated in a standard 37° C. in a 5.0% CO2, water-saturated environment. Cell counting was performed with a Beckman-Coulter Z2 particle counter and hemacytometer.
Solutions of the analogs in EtOH (10 mM stock) were coated onto 24-well plates at a range of concentrations from 0-320 μM and ethanol was allowed to evaporate. Jurkat cells (1.0×10^5 cells) in 0.5 mL of medium were plated in each well (day 0). On days 3 and 5, fresh medium (1.0 mL) was added to each well. Cell cultures were mixed by gentle pipetting and 100 μL of cell suspension was taken from each well and counted. On days 7, 9, 11, 13 and 15, 1.0 mL of cell suspension was removed from each well after thorough mixing and fresh medium (1.0 mL) was added. Cells were counted on day 15 and the cell density was plotted as a percentage of control (as was done for cell counts from days 3 and 5).

HeLa cells = experiment: Morphological changes to HeLa cells
Protocol: (§1) The studies on morphological changes induced by sodium butyrate (5) and But4ManNAc (1) were performed following a reported procedure (45). Briefly, HeLa cells (200,000 cells per well in a 6-well plate) were plated and allowed to form monolayers. After 24 h, the supernatant was aspirated, fresh medium (4.0 mL) was added and treated with either ethanol (20 μL (0.5%), control), 5 (5.0 mM), or 1 (250 μM). For the AD 293 (HEK) cells 2.0×10^6 cells in 10 mL of medium (100 mm tissue culture dishes) were plated and treated, immediately after plating, with either ethanol (50 μL, control), 5 (5.0 mM), or 1 (250 μM). Images were acquired at various time intervals under bright field using a Nikon Eclipse TE200 inverted microscope equipped with a DXM 1200 digital camera.

AD293 (HEK) cells = experiment: Morphological changes / toxicity in AD293 (HEK) cells
Protocol: as §1

p21WAF1/Cip1 promoter = experiment: Luc-p21WAF1/Cip1 luciferase reporter gene assay in AD293 (HEK) cells
Protocol: The plasmid Luc-p21^Cip1/WAF1 (a gift from Vogelstein Laboratory, JHMI, Baltimore, Md.) was amplified and purified utilizing a plasmid maxi kit (Cat. No. 12163. Qiagen, Valencia, Calif.) following the manufacturer's protocol. HEK cells (2.5×10^5) were seeded in 3.0 mL medium and grown in 6-well T. C. plates. Transfection was performed using lipofectamine 2000 (Cat. No. 11668-019, Invitrogen, Carlsbad, Calif.) following the protocol supplier's protocol. Cells were trypsinized 24 h after transfection and seeded at 250,000 cells per well with concentrations of 1-4 shown in FIG. 3a or 1, 5, and ManNAc plus 5 at the concentrations shown in FIG. 3c. After 72 h, the cells were trypsinized, counted and lysed in 300 μL of luciferase cell culture lysis buffer and diluted five-fold in the same buffer. Luminometry was performed utilizing the ‘Luciferase Assay System’ (Cat. No. 1500, 4550, Promega, Madison, Wis.) following supplier's protocol. Luciferase Assay Reagent (100 μL) was added to the cell lysate (20 μL) in luminometer tubes (Cat. No. 55.476, Sarstedt, Newton, N.C.) and the luminescence was measured immediately using a Berthold Sirius Luminometer. The final values were normalized relative to ethanol-treated controls and reported on a per cell basis.

p21WAF1 = experiment: Endogenous p21WAF1 assay (anti-p21WAF1 antibody, flow cytometry) in Jurkat cells
Protocol: Endogenous expression of p21^WAF1 was detected following a reported procedure (58) with minor modifications. Jurkat cells (5.0×10^6 cells in 10 mL medium) were incubated with either ethanol or 1 (250 μM or 5 (2.5 mM). On a daily basis, aliquots of cells (˜1.0×10^6 per sample) were taken, washed with PBS (2×1.0 mL), fixed with Reagent A (Fix and Perm Kit, Caltag Laboratories, CA, Cat. No. GAS-003) for 10 min at room temperature, washed with washing buffer (PBS containing 5.0% FBS, 0.1% NaN3), re-suspended in 95% v/v methanol and kept on ice. After 30 min, cells were again washed with washing buffer and incubated with FITC-conjugated anti-p21^WAF1 antibody (Calbiochem, San Diego, Calif., Cat. No. OP64F) at 2.0 μg/mL in Reagent B (100 μL) (Fix and Perm Kit, Caltag Laboratories) for 1.0 h at room temperature in the dark. Finally, cells were re-suspended in washing buffer (500 μL) and analyzed by flow cytometry. Three replicate samples were taken for each condition and 10,000 events were counted for each sample.

[1] = test system: sialic acid biosynthesis in Jurkat cells; experiment: Assay for total sialic acid production (periodate-resorcinol); settings: three days
Protocol: Jurkat cells (5.0×10^6 cells in 10 mL medium) were incubated with 1-5 at various concentrations. […] The cell lysates were analyzed by using an adapted version of the periodate-resorcinol assay (36, 59) with the periodic acid oxidation step performed on ice to allow quantification of total (i.e., free monosaccharide plus glycoconjugate-bound) sialic acid. For each assay, a standard curve was obtained using N-acetylneuraminic acid (Pfanstiehl, Waukegan, Ill.) for calibration.

`CCCC(=O)OC[C@H]1OC(OC(=O)CCC)[C@@H](NC(C)=O)[C@@H](OC(=O)CCC)[C@@H]1OC(=O)CCC` (stereo partly drawn) [compound 1, 2-Acetylamino-2-deoxy-1,3,4,6-tetra-O-butanoyl-α,β-D-mannopyranoside] was tested, and the “long term growth characteristics (day 15)” value (Jurkat cells; Jurkat cells, 0-320 μM, day 15) was “induces both growth arrest and cell death”, the “concentration at which essentially all cells died by day 15” value (Jurkat cells; Jurkat cells, day 15) was ≥ 80 µM and the range for bioactivity (Jurkat cells; ManNAc and butyrate combined in the same molecule) was 50 to 100 µM. The “morphological changes / differentiation of HeLa cells” value (HeLa cells; 3 days, 1 at 250 μM, 5 at 5.0 mM) was “induced differentiation of HeLa cells; also recorded: growth of extended processes”, the “fold lower concentration for cellular responses than sodium n-butyrate” value (HeLa cells; HeLa cells) was ~20 × and the “apoptosis / toxicity in AD293 cells” value (AD293 (HEK) cells; 2 days, 1 at 250 μM, 5 at 5.0 mM) was “considerable degree of apoptosis; also recorded: toxicity”. For the same molecule, the “fold lower concentration for cellular responses than sodium n-butyrate” value (AD293 (HEK) cells; AD293 cells) was ~20 ×, the “concentration level required for p21WAF1/Cip1 activation” value (p21WAF1/Cip1 promoter) was “micromolar level efficiency” and the “gain in efficiency for 1 over 5, relative to the ~10× of the endogenous p21 assay” value (p21WAF1/Cip1 promoter; luc-p21WAF1/Cip reporter assay) was “even greater”. The “fold lower concentration for endogenous p21WAF1/Cip1 gene activation than sodium n-butyrate (5)” value (p21WAF1) was ~10 ×, the “endogenous p21WAF1 levels” value (p21WAF1; one week, 1 at 250 μM, 5 at 2.5 mM) was “increased p21^WAF1 levels” and the total sialic acid [1] was “large increase in total sialic acid”.
